In patent publication EP1366052B1 (priority 2001, dated 2002):
“Also recorded” adds a separate entry of the source.

Key:
weanling pigs = details: pig, in vivo
Sprague-Dawley rats = details: rat, in vivo
male Sprague-Dawley rats = details: rat, in vivo

Row | Compound | emesis (weanling pigs) | food consumption in the AM meal following the AM treat (weanling pigs) | persistence of the effect on food consumption (weanling pigs) | induction of fed pattern of gut motility (Sprague-Dawley rats) | food consumption (male Sprague-Dawley rats) | food consumption and weight gain (male Sprague-Dawley rats) | weight gain (male Sprague-Dawley rats) | delay before effect on the fasting pattern (Sprague-Dawley rats) | effect on fasting pattern of gut motility (Sprague-Dawley rats) | duration of action (Sprague-Dawley rats) [min] | onset time after administration (Sprague-Dawley rats) [s]
1 | CC1=C[C@H]2O[C@@H]3[C@H](O)C[C@](C)([C@@]2(CO)[C@H](O)C1=O)[C@]31CO1 [DON, 3α,7α,15-trihydroxy-12,13-epoxy-trichothec-9-en-8-one] | some emesis | decreased food consumption | wore off by the next meal | induced the fed pattern | decrease | immediate and sustained reduction; also recorded: concentration-dependant reduction | decrease | – | – | – | –
2 | C[C@@H]1C[C@H]2O[C@@H]3[C@H](O)C[C@](C)([C@]24COC(c2ccccc2)O[C@@H]4[C@@H]1O)[C@@]3(C)O (stereo partly drawn) [EN139502, 7α,15-benzylidene-9α,12β-dimethyltrichothecan-3α,8α,12α-triol] | – | – | – | did not induce the fed pattern | – | – | – | approximately 5 min | intensify or enhance the fasting pattern | – | –
3 | C[C@@H]1C[C@H]2O[C@@H]3[C@H](O)C[C@](C)([C@]24COC(c2ccccc2)O[C@@H]4C1=O)[C@@]3(C)O (stereo partly drawn) [EN139522, 7α,15-benzylidene-9α,12β-dimethyl-3α,12α-dihydroxytrichothecan-8-one] | – | – | – | induce a classic fed pattern | – | – | – | – | – | 35 | 20
